In patent US11331369B2, “Endoparasitic depsipeptides” (Zoetis Services LLC, priority 2017, dated 2022):

Assays:
[1] = test system: 4th stage larvae (L4) of Dirofilaria immitis; test: Dirofilaria immitis, L4 Stage (DiL4) In Vitro Assay; format: cell-based; conditions: Dirofilaria immitis, 72 h, read-out: DiL4 Minimum Effective Dose (MED), approximately 72 hours incubation; L4 larvae assessed for survival or paralysis
[2] = Canine pharmacokinetic (PK) study, single IV or oral dose; conditions: dog
[3] = test system: microfilariae of Dirofilaria immitis; test: Dirofilaria immitis, Microfilaria (DiMF) In vitro Assay; format: cell-based; conditions: 72 h, read-out: DiMF Minimum Effective Dose (MED), approximately 72 hours incubation, microfilariae assessed for survival or paralysis
[4] = test system: third stage larvae of Haemonchus contortus; test: Haemonchus contortus L3 (HcL3) Assay; format: cell-based; conditions: 96 h, read-out: HcL3 Minimum Effective Dose (MED)

Row | SMILES | minimal effective concentration [1] [µM] | Vd ([2]; in vivo, iv, 0.2 mg/kg) [L/kg] | clearance ([2]; in vivo, iv, 0.2 mg/kg) [mL/min/kg] | half-life ([2]; in vivo, iv, 0.2 mg/kg) [h] | Cmax ([2]; in vivo, po, 1 mg/kg) [ng/mL] | F ([2]; oral 1 mg/kg) [%] | minimal effective concentration [3] [µM] | half-life ([2]; in vivo, po, 1 mg/kg) [h] | minimal effective concentration [4] [µM]
1 | CC(C)C[C@H]1C(=O)O[C@H](Cc2ccc(CN3CCOc4ccccc43)cc2)C(=O)N(C)[C@@H](CC(C)C)C(=O)O[C@H](C)C(=O)N(C)[C@@H](CC(C)C)C(=O)O[C@H](Cc2ccc(CN3CCOc4ccccc43)cc2)C(=O)N(C)[C@@H](CC(C)C)C(=O)O[C@H](C)C(=O)N1C [Example 9-26, (3S,6R,9S,12R,15S,18R,21S,24R)-6,18-bis(4-((2,3-dihydro-4H-benzo[b][1,4]oxazin-4-yl)methyl)benzyl)-3,9,15,21-tetraisobutyl-4,10,12,16,22,24-hexamethyl-1,7,13,19-tetraoxa-4,10,16,22-tetraazacyclotetracosan-2,5,8,11,14,17,20,23-octaone] | 0.0001 to 0.001 | 0.6 | 0.1 | 106 | 71 | 1 | – | – | –
2 | CC(C)C[C@H]1C(=O)O[C@H](Cc2ccc(Cn3cc(C4CC4)cn3)cc2)C(=O)N(C)[C@@H](CC(C)C)C(=O)O[C@H](C)C(=O)N(C)[C@@H](CC(C)C)C(=O)O[C@H](Cc2ccc(Cn3cc(C4CC4)cn3)cc2)C(=O)N(C)[C@@H](CC(C)C)C(=O)O[C@H](C)C(=O)N1C [Example 1b-45, (3S,6R,9S,12R,15S,18R,21S,24R)-6,18-bis(4-((4-cyclopropyl-1H-pyrazol-1-yl)methyl)benzyl)-3,9,15,21-tetraisobutyl-4,10,12,16,22,24-hexamethyl-1,7,13,19-tetraoxa-4,10,16,22-tetraazacyclotetracosan-2,5,8,11,14,17,20,23-octaone] | – | – | – | – | 127 | – | 0.01 to 0.1 | 104 | –
3 | CC(C)C[C@H]1C(=O)O[C@H](Cc2ccc(Cn3nccc3C3CCC3)cc2)C(=O)N(C)[C@@H](CC(C)C)C(=O)O[C@H](C)C(=O)N(C)[C@@H](CC(C)C)C(=O)O[C@H](Cc2ccc(Cn3nccc3C3CCC3)cc2)C(=O)N(C)[C@@H](CC(C)C)C(=O)O[C@H](C)C(=O)N1C [Example 1b-129, (3S,6R,9S,12R,15S,18R,21S,24R)-6,18-bis(4-((5-cyclobutyl-1H-pyrazol-1-yl)methyl)benzyl)-3,9,15,21-tetraisobutyl-4,10,12,16,22,24-hexamethyl-1,7,13,19-tetraoxa-4,10,16,22-tetraazacyclotetracosan-2,5,8,11,14,17,20,23-octaone] | 0.0001 to 0.001 | – | – | – | – | – | 0.01 to 0.1 | – | 1 to 10
4 | CC(C)C[C@H]1C(=O)O[C@H](Cc2ccc(Cn3nccc3C3(C)CC3)cc2)C(=O)N(C)[C@@H](CC(C)C)C(=O)O[C@H](C)C(=O)N(C)[C@@H](CC(C)C)C(=O)O[C@H](Cc2ccc(Cn3nccc3C3(C)CC3)cc2)C(=O)N(C)[C@@H](CC(C)C)C(=O)O[C@H](C)C(=O)N1C [Example 1b-219, (3S,6R,9S,12R,15S,18R,21S,24R)-3,9,15,21-tetraisobutyl-4,6,10,16,18,22-hexamethyl-12,24-bis(4-((5-(1-methylcyclopropyl)-1H-pyrazol-1-yl)methyl)benzyl)-1,7,13,19-tetraoxa-4,10,16,22-tetraazacyclotetracosan-2,5,8,11,14,17,20,23-octaone] | 0.0001 to 0.001 | – | – | – | – | – | 0.01 to 0.1 | – | ≤ 1
5 | CC(C)C[C@H]1C(=O)O[C@H](Cc2ccc(Cn3cc(I)cn3)cc2)C(=O)N(C)[C@@H](CC(C)C)C(=O)O[C@H](C)C(=O)N(C)[C@@H](CC(C)C)C(=O)O[C@H](Cc2ccc(Cn3cccn3)cc2)C(=O)N(C)[C@@H](CC(C)C)C(=O)O[C@H](C)C(=O)N1C [Example 1a-21, (3S,6R,9S,12R,15S,18R,21S,24R)-6-(4-((1H-pyrazol-1-yl)methyl)benzyl)-18-(4-((4-iodo-1H-pyrazol-1-yl)methyl)benzyl)-3,9,15,21-tetraisobutyl-4,10,12,16,22,24-hexamethyl-1,7,13,19-tetraoxa-4,10,16,22-tetraazacyclotetracosan-2,5,8,11,14,17,20,23-octaone] | 0.0001 to 0.001 | – | – | – | – | – | 0.001 to 0.01 | – | 1 to 10
6 | CC(C)C[C@H]1C(=O)O[C@H](Cc2ccc(Cn3nccc3Br)cc2)C(=O)N(C)[C@@H](CC(C)C)C(=O)O[C@H](C)C(=O)N(C)[C@@H](CC(C)C)C(=O)O[C@H](Cc2ccc(Cn3ccc(Br)n3)cc2)C(=O)N(C)[C@@H](CC(C)C)C(=O)O[C@H](C)C(=O)N1C [Example 1a-31, (3S,6R,9S,12R,15S,18R,21S,24R)-6-(4-((3-bromo-1H-pyrazol-1-yl)methyl)benzyl)-18-(4-((5-bromo-1H-pyrazol-1-yl)methyl)benzyl)-3,9,15,21-tetraisobutyl-4,10,12,16,22,24-hexamethyl-1,7,13,19-tetraoxa-4,10,16,22-tetraazacyclotetracosan-2,5,8,11,14,17,20,23-octaone] | 0.0001 to 0.001 | – | – | – | – | – | 0.01 to 0.1 | – | 1 to 10
7 | Cc1cnn(Cc2ccc(C[C@H]3OC(=O)[C@H](CC(C)C)N(C)C(=O)[C@@H](C)OC(=O)[C@H](CC(C)C)N(C)C(=O)[C@@H](Cc4ccc(Cn5cc(I)cn5)cc4)OC(=O)[C@H](CC(C)C)N(C)C(=O)[C@@H](C)OC(=O)[C@H](CC(C)C)N(C)C3=O)cc2)c1 [Example 1a-20, (3S,6R,9S,12R,15S,18R,21S,24R)-6-(4-((4-iodo-1H-pyrazol-1-yl)methyl)benzyl)-3,9,15,21-tetraisobutyl-4,10,12,16,22,24-hexamethyl-18-(4-((4-methyl-1H-pyrazol-1-yl)methyl)benzyl)-1,7,13,19-tetraoxa-4,10,16,22-tetraazacyclotetracosan-2,5,8,11,14,17,20,23-octaone] | 0.0001 to 0.001 | – | – | – | – | – | 0.001 to 0.01 | – | 1 to 10
8 | CCOc1cnn(Cc2ccc(C[C@H]3OC(=O)[C@H](CC(C)C)N(C)C(=O)[C@@H](C)OC(=O)[C@H](CC(C)C)N(C)C(=O)[C@@H](Cc4ccc(Cn5ncc(OCC)c5C)cc4)OC(=O)[C@H](CC(C)C)N(C)C(=O)[C@@H](C)OC(=O)[C@H](CC(C)C)N(C)C3=O)cc2)c1C [Example 1b-197, (3S,6R,9S,12R,15S,18R,21S,24R)-6,18-bis[[4-[(4-ethoxy-5-methyl-pyrazol-1-yl)methyl]phenyl]methyl]-3,9,15,21-tetraisobutyl-4,10,12,16,22,24-hexamethyl-1,7,13,19-tetraoxa-4,10,16,22-tetrazacyclotetracosane-2,5,8,11,14,17,20,23-octaone] | 0.001 to 0.01 | – | – | – | – | – | 0.001 to 0.01 | – | 1 to 10
9 | CC(C)C[C@H]1C(=O)O[C@H](Cc2ccc(Cn3ccc(OC(C)C)n3)cc2)C(=O)N(C)[C@@H](CC(C)C)C(=O)O[C@H](C)C(=O)N(C)[C@@H](CC(C)C)C(=O)O[C@H](Cc2ccc(Cn3ccc(OC(C)C)n3)cc2)C(=O)N(C)[C@@H](CC(C)C)C(=O)O[C@H](C)C(=O)N1C [Example 1b-151, (3S,6R,9S,12R,15S,18R,21S,24R)-3,9,15,21-tetraisobutyl-6,18-bis(4-((3-isopropoxy-1H-pyrazol-1-yl)methyl)benzyl)-4,10,12,16,22,24-hexamethyl-1,7,13,19-tetraoxa-4,10,16,22-tetraazacyclotetracosan-2,5,8,11,14,17,20,23-octaone] | 0.0001 to 0.001 | – | – | – | – | – | 0.001 to 0.01 | – | ≤ 1
10 | CCc1cc(C)nn1Cc1ccc(C[C@H]2OC(=O)[C@H](CC(C)C)N(C)C(=O)[C@@H](C)OC(=O)[C@H](CC(C)C)N(C)C(=O)[C@@H](Cc3ccc(Cn4nc(C)cc4CC)cc3)OC(=O)[C@H](CC(C)C)N(C)C(=O)[C@@H](C)OC(=O)[C@H](CC(C)C)N(C)C2=O)cc1 [Example 1b-187, (3S,6R,9S,12R,15S,18R,21S,24R)-6,18-bis(4-((5-ethyl-3-methyl-1H-pyrazol-1-yl)methyl)benzyl)-3,9,15,21-tetraisobutyl-4,10,12,16,22,24-hexamethyl-1,7,13,19-tetraoxa-4,10,16,22-tetraazacyclotetracosan-2,5,8,11,14,17,20,23-octaone] | 0.001 to 0.01 | – | – | – | – | – | 0.01 to 0.1 | – | 1 to 10
11 | CCC#Cc1cnn(Cc2ccc(C[C@H]3OC(=O)[C@H](CC(C)C)N(C)C(=O)[C@@H](C)OC(=O)[C@H](CC(C)C)N(C)C(=O)[C@@H](Cc4ccc(Cn5cc(C#CCC)cn5)cc4)OC(=O)[C@H](CC(C)C)N(C)C(=O)[C@@H](C)OC(=O)[C@H](CC(C)C)N(C)C3=O)cc2)c1 [Example 1b-119, (3S,6R,9S,12R,15S,18R,21S,24R)-6,18-bis(4-((4-(but-1-yn-1-yl)-1H-pyrazol-1-yl)methyl)benzyl)-3,9,15,21-tetraisobutyl-4,10,12,16,22,24-hexamethyl-1,7,13,19-tetraoxa-4,10,16,22-tetraazacyclotetracosan-2,5,8,11,14,17,20,23-octaone] | ≤ 0.0001 | – | – | – | – | – | 0.001 to 0.01 | – | 10 to 100
12 | CCc1ccnn1Cc1ccc(C[C@H]2OC(=O)[C@H](CC(C)C)N(C)C(=O)[C@@H](C)OC(=O)[C@H](CC(C)C)N(C)C(=O)[C@@H](Cc3ccc(Cn4nccc4CC)cc3)OC(=O)[C@H](CC(C)C)N(C)C(=O)[C@@H](C)OC(=O)[C@H](CC(C)C)N(C)C2=O)cc1 [Example 1b-165, (3S,6R,9S,12R,15S,18R,21S,24R)-6,18-bis(4-((5-ethyl-1H-pyrazol-1-yl)methyl)benzyl)-3,9,15,21-tetraisobutyl-4,10,12,16,22,24-hexamethyl-1,7,13,19-tetraoxa-4,10,16,22-tetraazacyclotetracosan-2,5,8,11,14,17,20,23-octaone] | 0.0001 to 0.001 | – | – | – | – | – | 0.001 to 0.01 | – | ≤ 1
